In patent US20240228506A1, “RIPK1 INHIBITORS AND METHODS OF USE” (Merck Sharp & Dohme LLC, priority 2021, published 2024) one finds IC50 data, which are given here for 24 compounds.

This test addresses T1, GST-RIPK1 (recombinant GST-RIPK1 kinase domain (residues 1-327)) (Homo sapiens, UniProt Q13546).
T1 construct: recombinant GST-RIPK1 kinase domain (residues 1-327) enzyme; made in house; host or cells: baculovirus-transfected Sf21 insect cells
T1 sequence (Q13546 1-327): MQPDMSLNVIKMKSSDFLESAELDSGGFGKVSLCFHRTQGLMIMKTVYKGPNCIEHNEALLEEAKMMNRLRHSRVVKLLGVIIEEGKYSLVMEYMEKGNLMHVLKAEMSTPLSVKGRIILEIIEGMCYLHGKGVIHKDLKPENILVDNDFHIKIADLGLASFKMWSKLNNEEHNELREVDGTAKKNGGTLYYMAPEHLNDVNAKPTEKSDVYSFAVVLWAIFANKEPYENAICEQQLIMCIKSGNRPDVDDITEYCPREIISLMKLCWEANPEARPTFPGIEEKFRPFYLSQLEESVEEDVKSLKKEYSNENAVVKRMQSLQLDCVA
Nature of the test: RIPK1-ADP-Glo enzymatic assay. In kind it is biochemical. As to conditions: 25 nM GST-RIPK1, 300 μM ATP, 3 μM dephosphorylated-MBP; 30 minutes pre-incubation, 150 minutes reaction; ten-point titration. The protocol:
The enzymatic activity of RIPK1 is measured using an assay derived from ADP-Glo kit (Promega™), which provides a luminescent-based ADP detection system. Specifically, the ADP generated by RIPK1 kinase is proportionally detected as luminescent signals in a homogenous fashion. In this context, the assessment of the inhibitory effect of small molecules (EC50) is measured by the effectiveness of the compounds to inhibit the ATP to ADP conversion by RIPK1. In this assay, the potency (EC50) of each compound was determined from a ten-point (1:3 serial dilution; top compound concentration of 100000 nM) titration curve using the following outlined procedure. To each well of a white ProxiPlus 384 well-plate, […] of compound (1% DMSO in final assay volume of 3 μL) was dispensed, followed by the addition of 2 μL of 1× assay buffer (25 mM Hepes 7.3, 20 mM MgCl2, 50 mM NaCl, 1 mM DTT, 0.005% Tween20, and 0.02% BSA) containing 37.5 nM of GST-RIPK1 (recombinant GST-RIPK1 kinase domain (residues 1-327) enzyme produced from baculovirus-transfected Sf21 cells: MW=62 kDa). Plates were placed in an ambient temperature humidified chamber for a 30 minutes pre-incubation with compound. Subsequently, each reaction was initiated by the addition of 1 μL 1×assay buffer containing 900 μM ATP and […]. The final reaction in each well of 3 μL consists of 25 nM of GST-RIPK1, 300 μM ATP, and 3 μM dephosphorylated-MBP. Kinase reactions were allowed to proceed for 150 minutes prior to adding ADP-Glo reagents per Promega's outlined kit protocol. Dose-response curves were generated by plotting percent effect (% product conversion; Y-axis) vs. Log10 compound concentrations (X-axis). EC50 values were calculated using a non-linear regression, four-parameters sigmoidal dose-response model.
For orientation: ADP-Glo turns the ADP formed in a reaction into a luminescent signal.
Consider `N#Cc1cncc2c1O[C@H]1C[C@@H]2N(C(=O)C2(CC(F)F)CCC2)C1` [Compound 1-44, (2S,5S)-4-[1-(2,2-difluoroethyl)cyclobutane-1-carbonyl]-2,3,4,5-tetrahydro-2,5-methanopyrido[3,4-f][1,4]oxazepine-9-carbonitrile], for which the half-maximal inhibitory concentration (IC50) is 254 nM.
For `COc1ccc2cc(C#Cc3cncc4c3O[C@H]3C[C@@H]4N(C(=O)C(C)(C)C)C3)ccc2c1` [Compound 2-38, 1-((2S,5S)-9-((6-methoxynaphthalen-2-yl)ethynyl)-2,3-dihydro-2,5-methanopyrido[3,4-f][1,4]oxazepin-4(5H)-yl)-2,2-dimethylpropan-1-one], the half-inhibitory concentration (IC50) amounted to 25 nM.
To `CCC(C)(C#N)C(=O)N1C[C@@H]2C[C@H]1c1cncc(C#N)c1O2` (single isomer, unassigned) [Compound 1-113, (2S,5S)-4-(2-(R or S)-cyano-2-methylbutanoyl)-2,3,4,5-tetrahydro-2,5-methanopyrido[3,4-f][1,4]oxazepine-9-carbonitrile] belongs 156 nM; to `CC(C)(C(=O)N1C[C@@H]2C[C@H]1c1cncc(C#N)c1O2)C(F)F` [Compound 1-1, (2S,5S)-4-(3,3-difluoro-2,2-dimethylpropanoyl)-2,3,4,5-tetrahydro-2,5-methanopyrido[3,4-f][1,4]oxazepine-9-carbonitrile], 32 nM.
Next, `CC(C)(C(=O)N1C[C@@H]2C[C@H]1c1cncc(C#N)c1S2)C(F)F` [Compound 4-1, (2S,5S)-4-(3,3-difluoro-2,2-dimethylpropanoyl)-2,3,4,5-tetrahydro-2,5-methanopyrido[3,4-f][1,4]thiazepine-9-carbonitrile]: 24 nM; `CC(C)(C(=O)N1C[C@@H]2C[C@H]1c1cncc(F)c1O2)C1CC1` [Compound 2-16, 2-cyclopropyl-1-((2S,5S)-9-fluoro-2,3-dihydro-2,5-methanopyrido[3,4-f][1,4]oxazepin-4(5H)-yl)-2-methylpropan-1-one]: 74 nM.
Take `N#Cc1cncc2c1O[C@H]1C[C@@H]2N(C(=O)C2(C#N)CCCC2)C1` [Compound 1-111, (2S,5S)-4-(1-cyanocyclopentane-1-carbonyl)-2,3,4,5-tetrahydro-2,5-methanopyrido[3,4-f][1,4]oxazepine-9-carbonitrile]: the IC50 came out at 184 nM.
Regarding `CC(C)(C(=O)N1C[C@@H]2C[C@H]1c1cncc(C#Cc3ccc(OC(F)F)nc3)c1O2)C(F)F` [Compound 2-88, 1-((2S,5S)-9-((6-(difluoromethoxy)pyridin-3-yl)ethynyl)-2,3-dihydro-2,5-methanopyrido[3,4-f][1,4]oxazepin-4(5H)-yl)-3,3-difluoro-2,2-dimethylpropan-1-one], the IC50 was determined as 35 nM.
Consider `N#Cc1cncc2c1O[C@H]1C[C@@H]2N(C(=O)C2(C(F)(F)F)CCC2)C1` [Compound 1-11, (2S,5S)-4-[1-(trifluoromethyl)cyclobutane-1-carbonyl]-2,3,4,5-tetrahydro-2,5-methanopyrido[3,4-f][1,4]oxazepine-9-carbonitrile], for which the half-inhibitory concentration (IC50) stood at 62 nM.
To `N#Cc1cncc2c1OC[C@H]1CC[C@@H]2N1C(=O)C12CCC(F)(CC1)C2` [Compound 5-1, (3R,6S)-11-(4-Fluorobicyclo[2.2.1]heptane-1-carbonyl)-3,4,5,6-tetrahydro-2H-3,6-epiminooxocino[3,2-c]pyridine-10-carbonitrile] belongs 95 nM; to `O=C(N1C[C@@H]2C[C@H]1c1cncc(C#Cc3ccc(F)cc3)c1O2)C12CCC(F)(CC1)C2` [Compound 2-122, (4-fluorobicyclo[2.2.1]heptan-1-yl)((2S,5S)-9-((4-fluorophenyl)ethynyl)-2,3-dihydro-2,5-methanopyrido[3,4-f][1,4]oxazepin-4(5H)-yl)methanone], 24 nM; to `CC1(C(=O)N2C[C@@H]3C[C@H]2c2cncc(C#N)c2O3)CC1(F)F` (single isomer, unassigned) [Compound 1-28, (2S,5S)-4-[(S or R)-2,2-difluoro-1-methylcyclopropane-1-carbonyl]-2,3,4,5-tetrahydro-2,5-methanopyrido[3,4-f][1,4]oxazepine-9-carbonitrile], 201 nM.
On to `CC(C)(C(=O)N1C[C@@H]2C[C@H]1c1cncc(C#Cc3cncc(C(F)(F)F)c3)c1O2)C(F)F` [Compound 2-89, 3,3-difluoro-2,2-dimethyl-1-((2S,5S)-9-((5-(trifluoromethyl)pyridin-3-yl)ethynyl)-2,3-dihydro-2,5-methanopyrido[3,4-f][1,4]oxazepin-4(5H)-yl)propan-1-one], for which the IC50 was found to be 34 nM.
Take `CC(C)(C(=O)N1C[C@@H]2C[C@H]1c1cncc(C#N)c1O2)C1CC1` [Compound 1-8, (2S,5S)-4-(2-cyclopropyl-2-methylpropanoyl)-2,3,4,5-tetrahydro-2,5-methanopyrido[3,4-f][1,4]oxazepine-9-carbonitrile]: the 50% inhibitory concentration (IC50) was found to be 29 nM.
Take `CCC(C)(C)C(=O)N1C[C@@H]2C[C@H]1c1cncc(Cl)c1O2` [Compound 2-9, 1-((2S,5S)-9-chloro-2,3-dihydro-2,5-methanopyrido[3,4-f][1,4]oxazepin-4(5H)-yl)-2,2-dimethylbutan-1-one]: the IC50 stood at 41 nM.
Next, `N#Cc1cncc2c1OC[C@H]1CC[C@@H]2N1C(=O)C12CCC(C(F)(F)F)(CC1)C2` [Compound 5-2, (3R,6S)-11-(4-(trifluoromethyl)bicyclo[2.2.1]heptane-1-carbonyl)-3,4,5,6-tetrahydro-2H-3,6-epiminooxocino[3,2-c]pyridine-10-carbonitrile]: 114 nM.
Next, `N#Cc1cncc2c1O[C@H]1C[C@@H]2N(C(=O)C2(C(F)F)CCCC2)C1` [Compound 1-14, (2S,5S)-4-[1-(difluoromethyl)cyclopentane-1-carbonyl]-2,3,4,5-tetrahydro-2,5-methanopyrido[3,4-f][1,4]oxazepine-9-carbonitrile]: 51 nM; `O=C(N1C[C@@H]2C[C@H]1c1cncc(Cl)c1O2)C12CCC(C(F)(F)F)(CC1)C2` [Compound 2-4, [(2S,5S)-9-chloro-2,3-dihydro-2,5-methanopyrido[3,4-f][1,4]oxazepin-4(5H)-yl][4-(trifluoromethyl)bicyclo [2.2.1]heptan-1-yl]methanone]: 10 nM; `CC1(C(=O)N2C[C@@H]3C[C@H]2c2cncc(F)c2O3)CCCC1` [Compound 2-23, ((2S,5S)-9-fluoro-2,3-dihydro-2,5-methanopyrido[3,4-f][1,4]oxazepin-4(5H)-yl)(1-methylcyclopentyl) methanone]: 74 nM.
Next, `Cc1nnc(C#Cc2cncc3c2O[C@H]2C[C@@H]3N(C(=O)C(C)(C)C(F)F)C2)o1` [Compound 2-71, 3,3-Difluoro-2,2-dimethyl-1-((2S,5S)-9-((5-methyl-1,3,4-oxadiazol-2-yl)ethynyl)-2,3-dihydro-2,5-methanopyrido[3,4-f][1,4]oxazepin-4(5H)-yl)propan-1-one]: 89 nM; `CC(C)C12CC(C(=O)N3C[C@@H]4C[C@H]3c3cncc(C#N)c3O4)(C1)C2` [Compound 1-99, (2S,5S)-4-(3-isopropylbicyclo[1.1.1]pentane-1-carbonyl)-2,3,4,5-tetrahydro-2,5-methanopyrido[3,4-f][1,4]oxazepine-9-carbonitrile]: 48 nM; `Cc1ccc(C#Cc2cncc3c2O[C@H]2C[C@@H]3N(C(=O)C34CCC(F)(CC3)C4)C2)cc1` [Compound 2-103, (4-fluorobicyclo[2.2.1]heptan-1-yl)((2S,5S)-9-(p-tolylethynyl)-2,3-dihydro-2,5-methanopyrido[3,4-f][1,4]oxazepin-4(5H)-yl)methanone]: 21 nM.
With `CC1(C(=O)N2C[C@@H]3C[C@H]2c2cncc(Cl)c2O3)CCC1` [Compound 2-10, ((2S,5S)-9-chloro-2,3-dihydro-2,5-methanopyrido[3,4-f][1,4]oxazepin-4(5H)-yl)(1-methylcyclobutyl)methanone], the concentration for half-maximal inhibition (IC50) was found to be 227 nM.
Next, `O=C(N1C[C@@H]2C[C@H]1c1cncc(C#Cc3ccc(F)cc3F)c1O2)C12CCC(C(F)(F)F)(CC1)C2` [Compound 2-59, ((2S,5S)-9-((2,4-difluorophenyl)ethynyl)-2,3-dihydro-2,5-methanopyrido[3,4-f][1,4]oxazepin-4(5H)-yl)(4-(trifluoromethyl)bicyclo[2.2.1]heptan-1-yl)methanone]: 22 nM.

As a reminder, the IC50 is the concentration needed to halve the response being measured.
